# Assay results as given in PubChem BioAssay AID1963971 (Molecular Pharmacology Branch, DTP, NCI, 2024).
# Test system: 953936-095-R-J2-PDC spheroids with HUVEC/MSC, viability
# Experiment: Anticancer human tumor 953936-095-R-J2-PDC patient-derived cervical squamous cell carcinoma cell line growth inhibition [PI3K]
# Conditions: for IC50: curve of first compound; for viability, T/C: stronger effect = lower value
# Outline: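 Tumor cells grown as multi-cell spheroids with HUVEC endothelial cells and MSC fibroblast-like stroma were treated with targeted agents combined with inavolisib, alpelisib, duvelisib or copanlisib. Doses fell in half-log steps from near clinical Cmax, else from 10 microM. Viability was measured.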
# [1] = second compound 0.00316 µM, first compound 0.0316 µM
# [2] = second compound 0.00316 µM, first compound 0.1 µM
# [3] = second compound 0.00316 µM, first compound 0.316 µM
# [4] = second compound 0.00316 µM, first compound 1 µM
# [5] = second compound 0.00316 µM, first compound 3.16 µM
# [6] = second compound 0.00316 µM, first compound 10 µM
# [7] = second compound 0.01 µM, first compound 0.0316 µM
# [8] = second compound 0.01 µM, first compound 0.1 µM
# [9] = second compound 0.01 µM, first compound 0.316 µM
# [10] = second compound 0.01 µM, first compound 1 µM
# [11] = second compound 0.01 µM, first compound 3.16 µM
# [12] = second compound 0.01 µM, first compound 10 µM
# [13] = second compound 0.0316 µM, first compound 0.0316 µM
# [14] = second compound 0.0316 µM, first compound 0.1 µM
# [15] = second compound 0.0316 µM, first compound 0.316 µM
# [16] = second compound 0.0316 µM, first compound 1 µM
# [17] = second compound 0.0316 µM, first compound 3.16 µM
# [18] = second compound 0.0316 µM, first compound 10 µM
# [19] = second compound 0.1 µM, first compound 0.0316 µM
# [20] = second compound 0.1 µM, first compound 0.1 µM
# [21] = second compound 0.1 µM, first compound 0.316 µM
# [22] = second compound 0.1 µM, first compound 1 µM
# [23] = second compound 0.1 µM, first compound 3.16 µM
# [24] = second compound 0.1 µM, first compound 10 µM
# [25] = second compound 0.316 µM, first compound 0.0316 µM
# [26] = second compound 0.316 µM, first compound 0.1 µM
# [27] = second compound 0.316 µM, first compound 0.316 µM
# [28] = second compound 0.316 µM, first compound 1 µM
# [29] = second compound 0.316 µM, first compound 3.16 µM
# [30] = second compound 0.316 µM, first compound 10 µM
# [31] = second compound 1 µM, first compound 0.0316 µM
# [32] = second compound 1 µM, first compound 0.1 µM
# [33] = second compound 1 µM, first compound 0.316 µM
# [34] = second compound 1 µM, first compound 1 µM
# [35] = second compound 1 µM, first compound 3.16 µM
# [36] = second compound 1 µM, first compound 10 µM
# 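Also: spheroids exposed to compounds for seven days before read-out.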
smiles,measurement,setting,value
CC(C)NCC(C(=O)N1CCN(c2ncnc3c2C(C)CC3O)CC1)c1ccc(Cl)cc1 (stereo unspecified) + COc1c(OCCCN2CCOCC2)ccc2c3n(c(=NC(=O)c4cnc(N)nc4)nc12)CCN3,IC50,second compound 0.00316 µM,793 nM
same,IC50,second compound 0.01 µM,537 nM
same,IC50,second compound 0.0316 µM,< 31.6 nM
same,IC50,second compound 0.1 µM,< 31.6 nM
same,IC50,second compound 0.316 µM,< 31.6 nM
same,IC50,second compound 1 µM,< 31.6 nM
same,"viability, T/C",[1],80.9%
same,"viability, T/C",[2],85.2%
same,"viability, T/C",[3],66.5%
same,"viability, T/C",[4],46.5%
same,"viability, T/C",[5],21%
same,"viability, T/C",[6],11.6%
same,"viability, T/C",[7],68.9%
same,"viability, T/C",[8],69.2%
same,"viability, T/C",[9],62.2%
same,"viability, T/C",[10],35.6%
same,"viability, T/C",[11],16.6%
same,"viability, T/C",[12],9.89%
same,"viability, T/C",[13],44.4%
same,"viability, T/C",[14],38.5%
same,"viability, T/C",[15],35.7%
same,"viability, T/C",[16],24%
same,"viability, T/C",[17],12.2%
same,"viability, T/C",[18],6.65%
same,"viability, T/C",[19],18.9%
same,"viability, T/C",[20],16.4%
same,"viability, T/C",[21],16.3%
same,"viability, T/C",[22],12.4%
same,"viability, T/C",[23],6.76%
same,"viability, T/C",[24],3.98%
same,"viability, T/C",[25],6.59%
same,"viability, T/C",[26],6.54%
same,"viability, T/C",[27],5.22%
same,"viability, T/C",[28],4.04%
same,"viability, T/C",[29],2.93%
same,"viability, T/C",[30],1.71%
same,"viability, T/C",[31],1.44%
same,"viability, T/C",[32],2.11%
same,"viability, T/C",[33],1.2%
same,"viability, T/C",[34],1.24%
same,"viability, T/C",[35],0.83%
same,"viability, T/C",[36],0.81%
CCN1CCN(Cc2ccc(Nc3ncc(F)c(-c4cc(F)c5nc(C)n(C(C)C)c5c4)n3)nc2)CC1 + COc1c(OCCCN2CCOCC2)ccc2c3n(c(=NC(=O)c4cnc(N)nc4)nc12)CCN3,IC50,second compound 0.00316 µM,> 1000 nM
same,IC50,second compound 0.01 µM,> 1000 nM
same,IC50,second compound 0.0316 µM,< 3.16 nM
same,IC50,second compound 0.1 µM,< 3.16 nM
same,IC50,second compound 0.316 µM,< 3.16 nM
same,IC50,second compound 1 µM,< 3.16 nM
same,"viability, T/C","second compound 0.00316 µM, first compound 0.00316 µM",92.5%
same,"viability, T/C","second compound 0.00316 µM, first compound 0.01 µM",91.2%
same,"viability, T/C",[1],87%
same,"viability, T/C",[2],91.7%
same,"viability, T/C",[3],76.5%
same,"viability, T/C",[4],67.7%
same,"viability, T/C","second compound 0.01 µM, first compound 0.00316 µM",70.8%
same,"viability, T/C","second compound 0.01 µM, first compound 0.01 µM",75%
same,"viability, T/C",[7],69.7%
same,"viability, T/C",[8],60.7%
same,"viability, T/C",[9],56%
same,"viability, T/C",[10],55.5%
same,"viability, T/C","second compound 0.0316 µM, first compound 0.00316 µM",40.5%
same,"viability, T/C","second compound 0.0316 µM, first compound 0.01 µM",40.9%
same,"viability, T/C",[13],37.7%
same,"viability, T/C",[14],33.1%
same,"viability, T/C",[15],35.9%
same,"viability, T/C",[16],31.7%
same,"viability, T/C","second compound 0.1 µM, first compound 0.00316 µM",20%
same,"viability, T/C","second compound 0.1 µM, first compound 0.01 µM",17.5%
same,"viability, T/C",[19],15.2%
same,"viability, T/C",[20],13.8%
same,"viability, T/C",[21],14.2%
same,"viability, T/C",[22],15.6%
same,"viability, T/C","second compound 0.316 µM, first compound 0.00316 µM",6%
same,"viability, T/C","second compound 0.316 µM, first compound 0.01 µM",5.63%
same,"viability, T/C",[25],4.91%
same,"viability, T/C",[26],5.77%
same,"viability, T/C",[27],4.23%
same,"viability, T/C",[28],6.22%
same,"viability, T/C","second compound 1 µM, first compound 0.00316 µM",1.99%
same,"viability, T/C","second compound 1 µM, first compound 0.01 µM",1.61%
same,"viability, T/C",[31],1.43%
same,"viability, T/C",[32],1.48%
same,"viability, T/C",[33],1.73%
same,"viability, T/C",[34],2.54%
Cn1ncc(Cl)c1-c1cc(C(=O)NC(CN)Cc2cccc(F)c2)sc1Cl (stereo unspecified) + COc1c(OCCCN2CCOCC2)ccc2c3n(c(=NC(=O)c4cnc(N)nc4)nc12)CCN3,IC50,second compound 0.00316 µM,486 nM
same,IC50,second compound 0.01 µM,337 nM
same,IC50,second compound 0.0316 µM,< 31.6 nM
same,IC50,second compound 0.1 µM,< 31.6 nM
same,IC50,second compound 0.316 µM,< 31.6 nM
same,IC50,second compound 1 µM,< 31.6 nM
same,"viability, T/C",[1],81.2%
same,"viability, T/C",[2],85.4%
same,"viability, T/C",[3],54.1%
same,"viability, T/C",[4],36.5%
same,"viability, T/C",[5],17.8%
same,"viability, T/C",[6],10.2%
same,"viability, T/C",[7],69.4%
same,"viability, T/C",[8],68.6%
same,"viability, T/C",[9],49.8%
same,"viability, T/C",[10],28.7%
same,"viability, T/C",[11],14.4%
same,"viability, T/C",[12],8.14%
same,"viability, T/C",[13],39.1%
same,"viability, T/C",[14],36.8%
same,"viability, T/C",[15],32.5%
same,"viability, T/C",[16],19.1%
same,"viability, T/C",[17],9.8%
same,"viability, T/C",[18],4.58%
same,"viability, T/C",[19],21.8%
same,"viability, T/C",[20],17.8%
same,"viability, T/C",[21],14.3%
same,"viability, T/C",[22],12.9%
same,"viability, T/C",[23],6.24%
same,"viability, T/C",[24],2.41%
same,"viability, T/C",[25],5.73%
same,"viability, T/C",[26],5.77%
same,"viability, T/C",[27],6.01%
same,"viability, T/C",[28],3.54%
same,"viability, T/C",[29],3.19%
same,"viability, T/C",[30],1.52%
same,"viability, T/C",[31],1.54%
same,"viability, T/C",[32],1.61%
same,"viability, T/C",[33],1.15%
same,"viability, T/C",[34],1.37%
same,"viability, T/C",[35],1.11%
same,"viability, T/C",[36],0.46%
